Laboratory results from US11945822B2, “Pyrazolo-triazine and/or pyrazolo-pxrimidine derivatives as selective inhibitor of cyclin dependent kinase” (QURIENT CO., LTD., priority 2018, dated 2024).
pIC50: −log10 of the molar value.

Tests used:
[1] = tested on: MOLT-4; test: Cellular MOLT-4 viability assay (CellTiter-Glo, 72 hours); format: cell-based; details: Homo sapiens, MOLT4 viability assay
How it was run: (§1)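 72 h treatment, 37 °C, 5% CO2; DMSO ctrl, final <0.1%; CellTiter-Glo luminescence; n=2.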

[2] = tested on: OVCAR-3; test: Cellular OVCAR-3 viability assay (CellTiter-Glo, 72 hours); format: cell-based; details: Homo sapiens
Text: Human T-cell acute lymphoblastic leukemia cell line, MOLT-4 (ATCC, Cat #CRL-1582), Human multiple myeloma cell line, RPMI-8226 (Invitrogen, Cat #22400-089) and MM.1S (ATCC, Cat #CRL-2974), NSCLC (Non-small cell lung cancer) cell line H460 (ATCC, Cat #HTB-177), Human colon colorectal carcinoma cell line HCT116 (ATCC, Cat #CCL-247), Human acute monocytic leukemia cell line MV4-11 (ATCC, Cat #CRL-9591), OVCAR-3 (ATCC, Cat #HTB-161) and A2780 (ECACC, Cat #93112519) were obtained from ATCC. Cells were grown in RPMI-1640 media (Invitrogen, Cat #22400-089) supplemented with 10% FBS (Invitrogen, Cat #10099141) and 1% penicillin/streptomycin (Invitrogen, Cat #15070063) and cultured at 37° C., 5% CO2 in a humidified chamber. All cell lines were routinely tested for mycoplasma.
The effect of the CDK7 inhibitor to inhibit the growth of target cancer cells was evaluated through the 72 hours time period of viability assay. Briefly, the candidate cell line ware plated in 96 well plate at the following density of cells respectively. 1×10^4 cells/well for MOLT-4, RPMI-8226, MV4-11 and MM.1S, 5×10^3 for H460, HCT116 and OVCAR-3 and IX 10^3 for A2780. After 24 hours, the cells were treated with various concentrations of the compound (ranging from 0.0015 uM to 10 uM). DMSO solvent without compound served as a control and final DMSO concentration less than 0.1%. After 72 hours of incubation at 37° C., 5% CO2 incubator, cells were analyzed for the viability using the CellTiter-Glo Luminescent Cell Viability Assay (Promega, Cat #G7570). All viability assays were performed in duplicate and Luminescence was read using an Envision (Perkin Elmer, USA). Data was analyzed using XLfit software.

[3] = target: T1, CDK7/Cyclin H/MNAT1 (Homo sapiens, UniProt P50613); test: Enzymatic assay for CDK7 (FRET based LANCE Ultra kinase assay); format: biochemical; details: for pIC50: read-out: CDK7 enzymatic activity (IC50 range)
T1 construct: purchased Invitrogen PR6749B
How it was run: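 LANCE Ultra TR-FRET kinase assay using a ULight-labeled peptide substrate and a Eu-labeled anti-phospho antibody, with ATP at its Km. Purified CDK/cyclin complex was added to compound after brief centrifugation.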

[4] = tested on: RPMI-8226; test: Cellular RPMI-8226 viability assay (CellTiter-Glo, 72 hours); format: cell-based; details: Homo sapiens
How it was run: as §1

[5] = tested on: HCT116; test: Cellular HCT116 viability assay (CellTiter-Glo, 72 hours); format: cell-based; details: Homo sapiens, HCT-116
How it was run: as §1

[6] = tested on: A2780; test: Cellular A2780 viability assay (CellTiter-Glo, 72 hours); format: cell-based; details: Homo sapiens
How it was run: (§2)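 Cells seeded at 1×10^4/well (MM.1S), 5×10^3 (OVCAR-3) or 1×10^3 (A2780), grown in RPMI-1640 with 10% FBS. After 24 h, compound added at 0.0015–10 uM, final DMSO below 0.1%, for 72 h at 37° C. Viability read by CellTiter-Glo luminescence in duplicate, with curve fitting.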

[7] = target: T2, CDK1/Cyclin B (Homo sapiens, UniProt P06493); test: Enzymatic assay for CDK1 (FRET based LANCE Ultra kinase assay); format: biochemical; details: read-out: CDK1 enzymatic activity (IC50 range)
T2 construct: purchased Invitrogen PR4768C
How it was run: (§3)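 TR-FRET (LANCE Ultra) kinase assay at ATP Km, ULight-MBP peptide substrate (68 nM), 8-dose 4-fold compound series in DMSO. Enzymes: […]; 60 min at 23° C., stopped with EDTA plus Eu-anti-phospho-MBP antibody, read 665/615 nm after 60 min.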

[8] = target: T3, CDK5/p25 (Homo sapiens, UniProt Q00535); test: Enzymatic assay for CDK5 (FRET based LANCE Ultra kinase assay); format: biochemical; details: read-out: CDK5 enzymatic activity (IC50 range)
T3 construct: purchased Invitrogen PR8543B
How it was run: as §3

[9] = target: T4, CDK2/Cyclin A (Homo sapiens, UniProt P24941); test: Enzymatic assay for CDK2 (FRET based LANCE Ultra kinase assay); format: biochemical; details: read-out: CDK2 enzymatic activity (IC50 range)
T4 construct: purchased Invitrogen PV6290
How it was run: as §3

[10] = tested on: H460; test: Cellular H460 viability assay (CellTiter-Glo, 72 hours); format: cell-based; details: Homo sapiens, NCI-H460
How it was run: as §1

[11] = tested on: MV4-11; test: Cellular MV4-11 viability assay (CellTiter-Glo, 72 hours); format: cell-based; details: Homo sapiens
How it was run: as §1

[12] = tested on: MM.1S; test: Cellular MM.1S viability assay (CellTiter-Glo, 72 hours); format: cell-based; details: Homo sapiens, MM1.S
How it was run: as §2

T1 sequence (P50613 whole entry): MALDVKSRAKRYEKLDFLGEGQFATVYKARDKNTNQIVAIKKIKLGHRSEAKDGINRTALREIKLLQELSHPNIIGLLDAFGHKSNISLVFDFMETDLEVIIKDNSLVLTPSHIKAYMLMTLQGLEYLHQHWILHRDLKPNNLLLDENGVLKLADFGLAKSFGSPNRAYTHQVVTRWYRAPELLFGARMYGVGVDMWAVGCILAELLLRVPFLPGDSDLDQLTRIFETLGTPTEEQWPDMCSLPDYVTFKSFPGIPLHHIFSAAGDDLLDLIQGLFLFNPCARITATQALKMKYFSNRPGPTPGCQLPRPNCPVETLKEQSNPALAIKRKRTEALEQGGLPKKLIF
T1 sequence (P51946 whole entry partner): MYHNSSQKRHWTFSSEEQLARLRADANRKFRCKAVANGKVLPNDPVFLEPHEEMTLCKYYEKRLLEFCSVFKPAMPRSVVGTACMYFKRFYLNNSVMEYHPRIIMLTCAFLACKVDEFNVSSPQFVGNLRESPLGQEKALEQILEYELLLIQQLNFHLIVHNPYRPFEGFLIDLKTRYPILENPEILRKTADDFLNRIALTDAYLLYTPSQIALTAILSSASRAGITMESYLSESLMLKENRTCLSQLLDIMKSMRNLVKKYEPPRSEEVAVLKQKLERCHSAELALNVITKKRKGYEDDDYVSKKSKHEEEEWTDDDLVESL
T1 sequence (P51948 whole entry partner): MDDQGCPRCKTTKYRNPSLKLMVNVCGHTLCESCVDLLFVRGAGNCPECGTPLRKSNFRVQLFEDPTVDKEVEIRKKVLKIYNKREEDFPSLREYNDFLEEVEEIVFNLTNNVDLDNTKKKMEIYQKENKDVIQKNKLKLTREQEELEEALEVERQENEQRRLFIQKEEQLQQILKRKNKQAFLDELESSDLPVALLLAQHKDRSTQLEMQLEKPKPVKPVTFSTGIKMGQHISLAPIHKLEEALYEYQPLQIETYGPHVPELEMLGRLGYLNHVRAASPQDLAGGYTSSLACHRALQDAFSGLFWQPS
T2 sequence (P06493 whole entry): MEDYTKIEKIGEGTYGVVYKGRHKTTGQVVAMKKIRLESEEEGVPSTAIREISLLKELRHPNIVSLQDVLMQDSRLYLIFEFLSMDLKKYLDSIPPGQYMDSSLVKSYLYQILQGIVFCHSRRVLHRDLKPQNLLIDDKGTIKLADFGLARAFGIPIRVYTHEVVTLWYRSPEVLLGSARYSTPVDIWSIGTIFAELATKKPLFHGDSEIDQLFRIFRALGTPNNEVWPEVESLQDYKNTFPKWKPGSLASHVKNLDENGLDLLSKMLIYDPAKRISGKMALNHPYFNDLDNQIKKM
T2 sequence (P14635 whole entry partner): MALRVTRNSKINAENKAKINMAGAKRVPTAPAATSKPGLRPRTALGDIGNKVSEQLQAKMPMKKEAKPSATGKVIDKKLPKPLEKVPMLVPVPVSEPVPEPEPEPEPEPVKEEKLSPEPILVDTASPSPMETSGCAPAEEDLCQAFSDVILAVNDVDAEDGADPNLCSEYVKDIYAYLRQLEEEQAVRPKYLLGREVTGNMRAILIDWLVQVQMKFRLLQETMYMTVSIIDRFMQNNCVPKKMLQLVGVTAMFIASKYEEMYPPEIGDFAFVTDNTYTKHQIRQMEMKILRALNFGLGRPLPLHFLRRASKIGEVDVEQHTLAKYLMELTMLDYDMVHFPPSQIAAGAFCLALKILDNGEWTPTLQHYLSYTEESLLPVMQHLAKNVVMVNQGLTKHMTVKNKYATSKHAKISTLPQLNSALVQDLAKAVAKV
T3 sequence (Q00535 whole entry): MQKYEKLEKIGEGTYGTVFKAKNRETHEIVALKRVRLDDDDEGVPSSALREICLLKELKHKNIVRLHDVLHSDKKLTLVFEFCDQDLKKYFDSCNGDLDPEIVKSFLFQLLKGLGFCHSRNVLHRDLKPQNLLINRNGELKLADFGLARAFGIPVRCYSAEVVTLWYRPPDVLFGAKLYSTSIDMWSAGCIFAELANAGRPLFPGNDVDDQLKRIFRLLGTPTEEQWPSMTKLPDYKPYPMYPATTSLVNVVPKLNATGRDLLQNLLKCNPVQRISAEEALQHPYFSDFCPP
T3 sequence (Q15078 99-307 partner limits assumed): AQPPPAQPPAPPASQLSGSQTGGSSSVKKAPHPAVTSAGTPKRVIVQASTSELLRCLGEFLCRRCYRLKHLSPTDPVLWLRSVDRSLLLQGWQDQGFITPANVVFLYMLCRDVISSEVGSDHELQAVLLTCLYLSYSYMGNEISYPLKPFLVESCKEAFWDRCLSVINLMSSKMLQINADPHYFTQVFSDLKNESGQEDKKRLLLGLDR

pIC50 [1] | pIC50 [2] | CDK1/CDK7: Selectivity of CDK7 inhibition over CDK1 inhibition [3] | CDK2/CDK7: Selectivity of CDK7 inhibition over CDK2 inhibition [3] | CDK5/CDK7: Selectivity of CDK7 inhibition over CDK5 inhibition [3] | pIC50 [3] | pIC50 [4] | pIC50 [5] | pIC50 [6] | pIC50 [7] | pIC50 [8] | pIC50 [9] | pIC50 [10] | pIC50 [11] | pIC50 [12] | Structure (SMILES)
– | 5.00 to 6.00 | A (A=greater than 200 fold) | A (A=greater than 200 fold) | A (A=greater than 200 fold) | > 7.00 | > 6.00 | > 6.00 | ≥ 6.00 | < 6.00 | < 6.00 | < 6.00 | > 6.00 | > 6.00 | ≥ 6.00 | CC(C)c1cnn2c(NCc3c(Cl)cccc3-c3cc4ccccc4[nH]3)nc(N3CCC(N)CC3)nc12 [Compound 182]
– | 5.00 to 6.00 | A (A=greater than 200 fold) | A (A=greater than 200 fold) | A (A=greater than 200 fold) | > 7.00 | – | > 6.00 | ≥ 6.00 | < 6.00 | < 6.00 | < 6.00 | > 6.00 | > 6.00 | ≥ 6.00 | CC(C)c1cnn2c(NCc3c(Cl)cccc3-c3ccc4ccccc4n3)nc(N3CCC(N)CC3)nc12 [Compound 194]

Structure (SMILES) | pIC50 [1] | pIC50 [2] | CDK1/CDK7: Selectivity of CDK7 inhibition over CDK1 inhibition [3] | CDK2/CDK7: Selectivity of CDK7 inhibition over CDK2 inhibition [3] | CDK5/CDK7: Selectivity of CDK7 inhibition over CDK5 inhibition [3] | pIC50 [3] | pIC50 [4] | pIC50 [5] | pIC50 [6] | pIC50 [7] | pIC50 [8] | pIC50 [9] | pIC50 [10] | pIC50 [11] | pIC50 [12]
CC(C)c1cnn2c(NCc3ccccc3-c3ccc4ccccc4n3)nc(N3CCC(N)CC3)nc12 [Compound 48] | 5.00 to 6.00 | 5.00 to 6.00 | A (A=greater than 200 fold) | A (A=greater than 200 fold) | B (B=less than 200 fold, but greater than 20 fold) | > 7.00 | > 6.00 | > 6.00 | ≥ 6.00 | < 6.00 | 6.00 to 7.00 | < 6.00 | > 6.00 | > 6.00 | ≥ 6.00
